Structures are written as SMILES.

In patent US6716880B2, “Compounds for the treatment of estrogen-dependent illnesses and methods for making and using the same” (Duquesne University of the Holy Ghost, priority 1998, dated 2004) one finds inhibition, Ki and type of inhibition data, which are given here for 1 molecule.

In assay [1] the target is T1, estrone sulfatase in MDA-MB-231 breast cancer cells (Homo sapiens, UniProt P08842).
T1 construct: using intact monolayers of MDA-MB-231 breast cancer cells; endogenous in cells; host or cells: MDA-MB-231 breast cancer cells
T1 sequence (P08842 22-583): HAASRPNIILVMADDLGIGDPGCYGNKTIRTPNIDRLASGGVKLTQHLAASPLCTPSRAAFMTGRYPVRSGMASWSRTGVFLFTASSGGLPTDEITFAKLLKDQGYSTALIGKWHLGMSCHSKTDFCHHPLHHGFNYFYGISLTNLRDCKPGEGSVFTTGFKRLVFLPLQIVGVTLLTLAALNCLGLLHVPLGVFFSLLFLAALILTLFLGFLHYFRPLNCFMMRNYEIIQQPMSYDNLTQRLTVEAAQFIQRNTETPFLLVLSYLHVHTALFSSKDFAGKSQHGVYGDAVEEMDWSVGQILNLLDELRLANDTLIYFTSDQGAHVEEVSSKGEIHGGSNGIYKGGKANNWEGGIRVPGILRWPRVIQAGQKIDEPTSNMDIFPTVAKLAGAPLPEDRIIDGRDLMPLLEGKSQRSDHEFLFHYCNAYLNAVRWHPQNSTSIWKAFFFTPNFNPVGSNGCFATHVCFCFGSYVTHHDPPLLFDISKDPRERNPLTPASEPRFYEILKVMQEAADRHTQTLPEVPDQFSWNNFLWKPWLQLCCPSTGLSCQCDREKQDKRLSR
The assay can be described thus: Intact breast cancer cell estrone sulfatase assay. It is filed as cell-based. The conditions noted are these: intact MDA-MB-231 cells, 18 h incubation. Here is the method:
The ability of the compound prepared according to Example 1 to block hydrolysis of estrone sulfate was examined using intact monolayers of MDA-MB-231 breast cancer cells.
MDA-MB-231 cells were plated into 6-well dishes at approximately 1×10^6 cells/well in growth medium and incubated at 37° C. overnight to facilitate adherence to the plates. The growth medium contained 0.2% (v/v) sodium bicarbonate, 5% heat-inactivated fetal-calf serum, […] gentamicin, and 1% (v/v) antibiotic/antimycotic. Following incubation, growth medium was removed and replaced with growth medium containing ^3H-estrone sulfate (100,000 dpm/ml), with or without the compound of Example 1 (10 μM). Cells were incubated for 18 h, then plates were cooled for 15 min. Medium from each well (500 μL) was aliquoted into 16×100 mm tubes. Three mls of toluene were added to each tube for extraction of unconjugated steroids. The tubes were vortexed for 1 min and then centrifuged at 2500×g for 5 min to separate the aqueous and organic phases. One mL of the organic phase (containing radiolabeled unconjugated steroids) was transferred to scintillation vials and 5 ml scintillation cocktail was added. Total radioactivity was counted using a Packard Tri-carb scintillation counter at 50% efficiency for ^3H. All extractions were performed in duplicate and all treatments were run in triplicate. […]

In another assay the target is T2, estrone sulfatase (Rattus norvegicus, UniProt P15589).
T2 construct: using rat liver microcosm as a source of sulfatase; from tissue; host or cells: rat liver microsomal fraction (juvenile female Sprague-Dawley rats)
T2 sequence (P15589 20-577): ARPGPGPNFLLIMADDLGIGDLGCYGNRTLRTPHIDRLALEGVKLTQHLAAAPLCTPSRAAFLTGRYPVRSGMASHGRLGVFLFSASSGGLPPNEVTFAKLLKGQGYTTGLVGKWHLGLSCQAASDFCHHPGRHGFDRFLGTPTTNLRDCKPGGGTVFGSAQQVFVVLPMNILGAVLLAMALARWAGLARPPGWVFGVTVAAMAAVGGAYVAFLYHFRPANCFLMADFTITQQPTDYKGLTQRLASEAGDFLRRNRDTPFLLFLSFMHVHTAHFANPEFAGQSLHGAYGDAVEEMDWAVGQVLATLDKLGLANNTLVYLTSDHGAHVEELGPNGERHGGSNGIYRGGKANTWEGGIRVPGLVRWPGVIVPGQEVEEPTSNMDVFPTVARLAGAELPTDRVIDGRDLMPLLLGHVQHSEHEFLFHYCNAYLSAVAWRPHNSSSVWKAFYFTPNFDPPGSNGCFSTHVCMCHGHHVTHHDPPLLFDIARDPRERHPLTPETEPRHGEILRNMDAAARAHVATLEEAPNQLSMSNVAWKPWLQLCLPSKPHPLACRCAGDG
The assay can be described thus: Rat liver microsome sulfatase assay (Lineweaver-Burk). The assay is classed as biochemical. The conditions noted are these: rat liver microsomes.

In assay [1], `CC/C(=C(/c1ccc(OCCN(C)C)cc1)c1ccc(OS(N)(=O)=O)cc1)c1ccccc1` [tamoxifen sulfamate, (Z)-4-Hydroxytamoxifen Sulfamate] returned an inhibition at 10 µM of around 50%. Besides, at estrone sulfatase (double reciprocal plot, fixed inhibitor concentration 10 μM), the Ki is around 17 µM. At estrone sulfatase (maximum velocity unchanged, Km increased), the type of inhibition result is on record as “competitive inhibitor”.

As usually defined, the inhibition is the percentage by which the read-out fell short of the control. Read a high inhibition as strong suppression. What is called Ki is the dissociation constant of the complex between target and ligand, obtained from inhibition or displacement.
